Test results as given in patent publication US20250171418A1, “PARP1 INHIBITORS AND USES THEREOF” (XinThera, Inc., priority 2022, published 2025).

Experiments:
[1] = target: T1, BCRP (Homo sapiens, UniProt Q9UNQ0); assay: In vitro human transporter efflux, MDCKII cells expressing BCRP; format: in vitro ADME
T1 construct: expressed in transfected cells; host or cells: MDCKII (Madin-Darby canine kidney) cells
T1 sequence (Q9UNQ0 1-655): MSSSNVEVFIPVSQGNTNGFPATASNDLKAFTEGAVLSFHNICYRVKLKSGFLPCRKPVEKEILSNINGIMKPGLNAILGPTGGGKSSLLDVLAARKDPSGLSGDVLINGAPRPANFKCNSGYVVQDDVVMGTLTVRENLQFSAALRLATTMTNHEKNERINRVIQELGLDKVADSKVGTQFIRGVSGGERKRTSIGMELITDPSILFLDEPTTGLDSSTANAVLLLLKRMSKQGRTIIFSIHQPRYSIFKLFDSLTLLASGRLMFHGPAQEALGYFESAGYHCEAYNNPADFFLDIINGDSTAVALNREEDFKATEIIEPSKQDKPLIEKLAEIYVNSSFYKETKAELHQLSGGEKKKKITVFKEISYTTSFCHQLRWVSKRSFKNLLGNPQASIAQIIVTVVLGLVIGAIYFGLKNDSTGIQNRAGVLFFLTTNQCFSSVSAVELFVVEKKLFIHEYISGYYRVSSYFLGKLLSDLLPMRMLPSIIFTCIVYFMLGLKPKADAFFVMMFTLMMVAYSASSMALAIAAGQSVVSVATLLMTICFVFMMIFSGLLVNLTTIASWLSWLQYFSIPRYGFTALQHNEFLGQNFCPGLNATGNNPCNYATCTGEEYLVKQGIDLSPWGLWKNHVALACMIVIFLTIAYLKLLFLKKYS
Method: (§1) Madin-Darby canine kidney (MDCKII) cells expressing either MDR1 or BCRP were seeded onto Corning HTS Transwell® 96-well polycarbonate permeable (0.4 μm pore) supports at a density of 545,000 cells/cm2. Cells were incubated for 4-8 days prior to assay, and monolayer integrity was assessed by measuring transepithelial electrical resistance (TEER). […] The final organic solvent concentration was 0.5% (v/v). Bidirectional (apical-to-basolateral and basolateral-to-apical) flux of the test and reference compounds was determined over a 2-hour incubation at 37° C. and […] with a relative humidity of 95%. At the end of the incubation, samples from the apical and basolateral side were taken and then precipitated with acetonitrile containing internal standard. After centrifugation at 3200×g, supernatants were diluted 1:1 (v/v) with water and subjected to analysis via HPLC-MS/MS.
(§2) The apparent permeability (Papp, units of x 10-6 cm/s) was calculated using the following equation: […]
(§3) Where dQ/dt was the rate of drug transport (pmol/s), A was the surface area of the membrane (0.143 cm^2), and DO was the initial donor concentration (nM or pmol/cm3).
(§4) Efflux ratio=Papp(B→A)/Papp(A→B)
(§5) Where Papp(B→A) is the apparent permeability in the basolateral-to-apical direction, and Papp(A→B) is the apparent permeability in the apical-to-basolateral direction.

[2] = target: PARP1 (Homo sapiens, UniProt P09874); assay: biochemical
Method: The assay was performed utilizing the following method:
Compounds were dissolved in DMSO an Echo550 liquid handler was utilized to make serial dilations in the desired concentration range in Optiplate-384F plates. 100% DMSO was used for the high (with protein) and low (without protein) control samples. 20 nL of compound or DMSO alone was added to individual assay plate wells.
PARP1 and PARP2 protein were expressed, purified, and diluted in assay buffer containing 50 mM Tris pH 8.0, 0.001% Triton X-100, 10 mM MgCl2, 150 mM NaCl to a final concentration of 20 nM. The PARPi-FL was then added at a final concentration of 3 nM.
The assay plate was centrifuged at 1000 rpm for 1 min and incubated for 4 h at room temperature.
The fluorescent polarization was read using an Envision plate reader using the following settings: • Excitation filter—FITC FP 480-Ex Slot 3 • Emission filter—FITC FP P-pol 535-Em Slot 4 • 2nd Emission filter—FITC FP S-pol 535-Em Slot 3 • Mirror module—FITC FP Dual Enh-Slot 1
XLFit (equation 201) is used to calculate a reported IC50 for each compound.

[3] = target: T2, MDR1 (Homo sapiens, UniProt P08183); assay: In vitro human transporter efflux, MDCKII cells expressing MDR1; format: in vitro ADME
T2 construct: expressed in transfected cells; host or cells: MDCKII (Madin-Darby canine kidney) cells
Method: as §1, §2, §3, §4, §5

[4] = tested on: DLD-1 BRCA2(−/−); assay: Cell growth inhibition assay (CellTiter-Glo cell viability); format: cell-based; settings: Homo sapiens, DLD-1, 168 h, DLD-1 BRCA2(−/−) cells, 7 days, CellTiter Glo 2.0
Method: (§6) Cell proliferation was measured through the cell viability assay using DLD-1 BRCA2(−/−) and parental isogenic pair and MDA-MB-436 (mutated BRCA1) cell lines. The CellTiter-Glo (CTG) based cell viability assay is designed to determine the number of viable cells in the culture because of compound effect, by quantifying ATP, which indicates the presence of metabolically active cells.
(§7) DLD-1 BRCA2(−/−) and parental isogenic pair were cultured in RPMI 1640 supplemented with 10% fetal bovine serum (FBS), and MDA-MB-436 cells were cultured in DMEM supplemented with 10% FBS. Both were cultured at 37° C. with […]. Invention compounds were distributed to the 384 well plate (Corning, 3764) using Echo acoustic liquid handler to form a 1:3 serially diluted final concentration with top dose of 10 or 30 μM.

[5] = tested on: MDA-MB-436 (mutated BRCA1) cell lines; assay: as above; format: cell-based; settings: Homo sapiens, 168 h; MDA-MB-436 cells, 7 days, CellTiter Glo 2.0
Method: as §6, §7

[6] = In vivo determination of rat Kp,uu; settings: brain and plasma, 1 mg/kg, male Sprague-Dawley rats, oral gavage, 0.1 mg/mL at 10 mL/kg, Kp*(fraction unbound in brain homogenate/fraction unbound in plasma)
Method: The equilibrium dialysis method was used to investigate the in vitro binding of test articles and reference compounds to plasma proteins. Plasma samples containing 5 μM test article or blank dialysis buffer solution (PBS, pH 7.4) were added to separate chambers of the dialysis wells of the High Throughput equilibrium Dialysis (HTD) device. The dialysis plate was sealed and placed in an incubator at 37° C. with 5% CO2 with shaking at approximately 100 rpm for 6 hours. All experiments were performed in duplicate. Ketoconazole (5 μM) was used as the reference compound. After incubation, the seal was removed, and 50 μL of post-dialysis samples were pipetted from both buffer and plasma chambers into fresh 96well plates. Samples were equimatrilyzed by either addition of blank plasma to buffer samples or the addition of blank buffer to plasma samples. […] The unbound fractions in plasma were calculated using the concentrations of test articles in buffer and plasma samples according to the following equation: […]
The equilibrium dialysis method was used to investigate the in vitro binding of test articles and reference compounds to rodent brain homogenate. […] The unbound fractions in diluted brain homogenate were calculated using the concentrations of test articles in buffer and homogenate samples according to the following equation: […]

T2 sequence (P08183 whole entry): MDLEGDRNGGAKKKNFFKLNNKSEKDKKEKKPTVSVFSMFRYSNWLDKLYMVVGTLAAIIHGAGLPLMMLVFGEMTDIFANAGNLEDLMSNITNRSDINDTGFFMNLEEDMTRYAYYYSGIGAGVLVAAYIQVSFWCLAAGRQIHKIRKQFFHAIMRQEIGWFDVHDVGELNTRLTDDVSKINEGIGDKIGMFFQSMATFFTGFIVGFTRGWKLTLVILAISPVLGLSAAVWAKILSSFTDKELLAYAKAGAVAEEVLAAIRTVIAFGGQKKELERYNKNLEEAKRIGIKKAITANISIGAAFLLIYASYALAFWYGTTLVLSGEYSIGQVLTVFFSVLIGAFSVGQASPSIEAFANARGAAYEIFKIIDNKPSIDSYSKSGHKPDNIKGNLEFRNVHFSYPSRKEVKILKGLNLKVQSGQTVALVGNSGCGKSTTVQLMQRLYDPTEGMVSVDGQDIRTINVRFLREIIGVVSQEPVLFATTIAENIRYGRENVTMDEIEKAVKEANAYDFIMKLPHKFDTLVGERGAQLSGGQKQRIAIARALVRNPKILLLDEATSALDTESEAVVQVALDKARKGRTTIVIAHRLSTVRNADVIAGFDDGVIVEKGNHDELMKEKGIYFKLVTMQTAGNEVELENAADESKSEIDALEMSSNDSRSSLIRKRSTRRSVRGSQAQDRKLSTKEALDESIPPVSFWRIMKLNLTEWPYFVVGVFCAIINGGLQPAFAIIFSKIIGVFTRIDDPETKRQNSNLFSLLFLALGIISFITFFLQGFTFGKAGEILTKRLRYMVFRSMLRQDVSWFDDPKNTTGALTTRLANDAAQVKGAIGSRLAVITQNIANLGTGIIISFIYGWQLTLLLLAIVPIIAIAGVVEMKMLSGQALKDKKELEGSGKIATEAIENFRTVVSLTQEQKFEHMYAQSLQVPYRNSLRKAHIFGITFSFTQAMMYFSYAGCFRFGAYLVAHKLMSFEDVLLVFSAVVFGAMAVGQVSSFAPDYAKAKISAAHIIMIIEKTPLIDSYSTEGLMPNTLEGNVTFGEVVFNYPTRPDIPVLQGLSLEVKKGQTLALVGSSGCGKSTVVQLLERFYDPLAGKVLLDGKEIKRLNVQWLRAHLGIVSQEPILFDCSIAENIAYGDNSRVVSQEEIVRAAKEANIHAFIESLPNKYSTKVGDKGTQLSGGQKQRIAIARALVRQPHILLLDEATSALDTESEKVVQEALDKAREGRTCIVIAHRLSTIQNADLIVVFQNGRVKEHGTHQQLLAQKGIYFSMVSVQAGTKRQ
Sequence of PARP1 (P09874 whole entry): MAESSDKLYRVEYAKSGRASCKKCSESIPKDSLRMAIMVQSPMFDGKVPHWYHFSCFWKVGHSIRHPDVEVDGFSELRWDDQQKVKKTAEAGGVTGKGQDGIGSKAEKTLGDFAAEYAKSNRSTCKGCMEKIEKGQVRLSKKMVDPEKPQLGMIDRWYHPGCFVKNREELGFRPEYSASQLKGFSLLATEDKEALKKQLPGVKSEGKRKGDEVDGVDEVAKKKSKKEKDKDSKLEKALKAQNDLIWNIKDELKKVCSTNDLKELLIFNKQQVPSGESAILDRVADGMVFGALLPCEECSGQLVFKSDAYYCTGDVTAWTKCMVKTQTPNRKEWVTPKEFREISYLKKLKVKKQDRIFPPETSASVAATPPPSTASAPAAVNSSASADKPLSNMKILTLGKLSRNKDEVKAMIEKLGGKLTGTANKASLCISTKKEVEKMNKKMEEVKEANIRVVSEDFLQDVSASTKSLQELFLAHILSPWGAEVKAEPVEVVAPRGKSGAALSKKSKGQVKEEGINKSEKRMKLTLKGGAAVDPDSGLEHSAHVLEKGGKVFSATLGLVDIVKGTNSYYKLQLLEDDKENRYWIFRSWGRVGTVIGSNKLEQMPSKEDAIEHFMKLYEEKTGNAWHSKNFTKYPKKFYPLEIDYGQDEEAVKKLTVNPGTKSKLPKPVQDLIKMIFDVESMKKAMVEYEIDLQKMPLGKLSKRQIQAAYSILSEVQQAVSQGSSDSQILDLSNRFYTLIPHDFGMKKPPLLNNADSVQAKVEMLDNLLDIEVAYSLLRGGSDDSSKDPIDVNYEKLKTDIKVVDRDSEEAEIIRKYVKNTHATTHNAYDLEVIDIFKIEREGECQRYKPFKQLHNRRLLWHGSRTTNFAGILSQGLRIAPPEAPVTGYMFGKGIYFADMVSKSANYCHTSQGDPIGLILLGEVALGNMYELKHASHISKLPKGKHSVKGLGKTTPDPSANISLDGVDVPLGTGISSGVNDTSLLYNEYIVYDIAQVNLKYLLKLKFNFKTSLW

## Cc1nc2ccc(CN3CCN(c4ccc(C(=O)NC5CC5)nc4F)CC3)c(F)c2[nH]c1=O [Example 1, N-cyclopropyl-6-fluoro-5-{4-[(5-fluoro-2-methyl-3-oxo-4H-quinoxalin-6-yl)methyl]piperazin-1-yl}pyridine-2-carboxamide]
[1]; pH 7.4, Efflux ratio=Papp(B→A)/Papp(A→B)
  efflux ratio at 2 h, 10 μM: 0.94
[1]; pH 7.4, read-out: BCRP Papp AB
  Papp A→B at 2 h, 10 μM: 25.7 ×10⁻⁶ cm/s
[1]; pH 7.4, read-out: BCRP Papp BA
  Papp B→A at 2 h, 10 μM: 24.1 ×10⁻⁶ cm/s
[2]
  IC50: 4.5 nM
[3]; MDCK-MDR1, pH 7.4, Efflux ratio=Papp(B→A)/Papp(A→B)
  efflux ratio at 2 h, 10 μM: 1.82
[3]; MDCK-MDR1, pH 7.4, read-out: MDCK-MDR1 Papp AB
  Papp A→B at 2 h, 10 μM: 16.5 ×10⁻⁶ cm/s
[3]; MDCK-MDR1, pH 7.4, read-out: MDCK-MDR1 Papp BA
  Papp B→A at 2 h, 10 μM: 30 ×10⁻⁶ cm/s
[4]
  EC50: 3.7 nM
[5]
  EC50: 2.4 nM
[6]
  Kp uu: 0.37
